# Data as given in patent US6737383B1, “Herbicidal oxadiazolidines” (priority 1999, dated 2004).
# Tests used:
# [1] = system: wheat; assay: Test B pre/postemergence wheat; assay type: in vivo, Triticum aestivum
# Method in brief: (§1)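 Response is a visual 0-to-10 score relative to untreated plants, where 0 means no effect and 10 means complete control, taken twelve to sixteen days after application. Treatments went onto soil at planting and onto foliage of 1- to 4-leaf plants, using a surfactant-containing non-phytotoxic solvent.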
# [2] = system: rice; assay: Test B flood test rice; assay type: in vivo, Oryza sativa
# Method in brief: (§2)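 Read-out is a visual response score from 0 (no effect) to 10 (complete control), assigned by comparison with untreated controls. Treatment was applied at the 2-leaf stage, and plants stayed in the greenhouse for twelve to sixteen days before scoring.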
# [3] = system: wild oat; assay: Test B pre/postemergence wild oat; assay type: in vivo, Avena fatua
# Method in brief: as §1
# [4] = system: crabgrass; assay: Test B pre/postemergence crabgrass; assay type: in vivo, Digitaria sanguinalis
# Method in brief: as §1
# [5] = system: morningglory; assay: Test B pre/postemergence morningglory; assay type: in vivo, Ipomoea hederacea
# Method in brief: as §1
# [6] = system: corn; assay: Test B pre/postemergence corn; assay type: in vivo, Zea mays
# Method in brief: as §1
# [7] = system: soybean; assay: Test B pre/postemergence soybean; assay type: in vivo, Glycine max
# Method in brief: as §1
# [8] = system: surinam grass; assay: Test B pre/postemergence surinam grass; assay type: in vivo, Brachiaria decumbens
# Method in brief: as §1
# [9] = system: giant foxtail; assay: Test B pre/postemergence giant foxtail; assay type: in vivo, Setaria faberii
# Method in brief: as §1
# [10] = system: bamyardgrass; assay: Test B flood test barnyardgrass; assay type: in vivo, Echinochloa crus-galli
# Method in brief: as §2
# [11] = system: pigweed; assay: Test B pre/postemergence pigweed; assay type: in vivo, Amaranthus retroflexus
# Method in brief: as §1
# [12] = system: duck salad; assay: Test B flood test duck salad; assay type: in vivo, Heteranthera limosa
# Method in brief: as §2
# [13] = system: blackgrass; assay: Test B pre/postemergence blackgrass; assay type: in vivo, Alopecurus myosuroides
# Method in brief: as §1
# [14] = system: velvetleaf; assay: Test B pre/postemergence velvetleaf; assay type: in vivo, Abutilon theophrasti
# Method in brief: as §1
# [15] = system: smallflower flatsedge; assay: Test B flood test smallflower flatsedge; assay type: in vivo, Cyperus difformis
# Method in brief: as §2
# [16] = system: purple nutsedge; assay: Test B pre/postemergence purple nutsedge; assay type: in vivo, Cyperus rotundus
# Method in brief: as §1
# [17] = system: rape; assay: Test B pre/postemergence rape; assay type: in vivo, Brassica napus
# Method in brief: as §1
# [18] = system: bedstraw; assay: Test B pre/postemergence bedstraw; assay type: in vivo, Galium aparine
# Method in brief: as §1
# [19] = system: sugar beet; assay: Test B pre/postemergence sugar beet; assay type: in vivo, Beta vulgaris
# Method in brief: as §1
# [20] = system: cocklebur; assay: Test B pre/postemergence cocklebur; assay type: in vivo, Xanthium strumarium
# Method in brief: as §1
# [21] = Postemergence, Rate 62 g/ha, scale 0 to 10, 0 is no effect, 10 is complete control
# [22] = Postemergence, Rate 250 g/ha, scale of 0 to 10, 0 is no effect, 10 is complete control
# [23] = Preemergence, Rate 62 g/ha, scale 0 to 10 (0 no effect, 10 complete control)
# [24] = Preemergence, Rate 125 g/ha, scale of 0 to 10 where 0 is no effect and 10 is complete control
# [25] = Preemergence, Rate 250 g/ha, scale 0 to 10 (0 no effect, 10 complete control)
# [26] = Preemergence, Rate 500 g/ha, scale of 0 to 10 where 0 is no effect and 10 is complete control
# [27] = Rate 62 g/ha, flood test species, Pre-emergence, visual evaluation after twelve to sixteen days
# [28] = Rate 125 g/ha, under heading Pre-emergence, flood test species, visual evaluation after twelve to sixteen days
# [29] = Rate 250 g/ha, Pre-emergence (flood test species), scale 0 to 10, 0 is no effect, 10 is complete control
# [30] = Rate 500 g/ha, Pre-emergence section of Table B, 0 to 10 scale (0 no effect, 10 complete control)
# [31] = Postemergence, Rate 500 g/ha, scale of 0 to 10 where 0 is no effect and 10 is complete control
compound,measurement,setting,value
CC(=O)NCn1c(=O)on(C(=O)N(c2ccc(F)cc2F)C(C)C)c1=O [Compound 622],"Plant response rating, Wheat",[1]; [21],0
same,Wheat plant response rating,[1]; [22],0
same,Wheat plant response rating,[1]; [23],0
same,Wheat plant response rating,[1]; [24],0
same,"Plant response rating, Wheat",[1]; [25],0
same,"Plant response rating, Wheat",[1]; [26],0
same,"Plant response rating, Rice (0 to 10 scale, 0 is no effect, 10 is complete control)",[2]; [27],0
same,"Rice plant response rating (0 to 10 scale, 0 is no effect, 10 is complete control)",[2]; [28],0
same,Rice plant response rating,[2]; [29],0
same,Rice plant response rating,[2]; [30],0
same,"Plant response rating, Wild oats",[3]; [21],0
same,Wild oats plant response rating,[3]; [22],0
same,Wild oats plant response rating,[3]; [23],0
same,Wild oats plant response rating,[3]; [24],0
same,"Plant response rating, Wild oats",[3]; [25],0
same,"Plant response rating, Wild oats",[3]; [26],3
same,"Plant response rating, Crabgrass",[4]; [21],2
same,"Plant response rating, Crabgrass",[4]; [31],5
same,Crabgrass plant response rating,[4]; [23],6
same,Crabgrass plant response rating,[4]; [24],6
same,"Plant response rating, Crabgrass",[4]; [25],7
same,"Plant response rating, Crabgrass",[4]; [26],8
same,"Plant response rating, Morningglory",[5]; [21],0
same,Morningglory plant response rating,[5]; [22],2
same,"Plant response rating, Morningglory",[5]; [31],2
same,Morningglory plant response rating,[5]; [23],0
same,Morningglory plant response rating,[5]; [24],0
same,"Plant response rating, Morningglory",[5]; [25],0
same,"Plant response rating, Morningglory",[5]; [26],0
same,"Plant response rating, Corn",[6]; [21],0
same,Corn plant response rating,[6]; [22],0
same,"Plant response rating, Corn",[6]; [31],0
same,Corn plant response rating,[6]; [23],0
same,Corn plant response rating,[6]; [24],0
same,"Plant response rating, Corn",[6]; [25],0
same,"Plant response rating, Corn",[6]; [26],0
same,"Plant response rating, Soybean",[7]; [21],4
same,Soybean plant response rating,[7]; [22],6
same,Soybean plant response rating,[7]; [23],0
same,Soybean plant response rating,[7]; [24],0
same,"Plant response rating, Soybean",[7]; [25],0
same,"Plant response rating, Soybean",[7]; [26],0
same,"Plant response rating, B. signalgrass",[8]; [21],0
same,B. signalgrass plant response rating,[8]; [22],0
same,"Plant response rating, B. signalgrass",[8]; [31],0
same,B. signalgrass plant response rating,[8]; [23],0
same,B. signalgrass plant response rating,[8]; [24],0
same,"Plant response rating, B. signalgrass",[8]; [25],0
same,"Plant response rating, B. signalgrass",[8]; [26],4
same,"Plant response rating, Giant foxtail",[9]; [21],0
same,Giant foxtail plant response rating,[9]; [22],6
same,"Plant response rating, Giant foxtail",[9]; [31],7
same,Giant foxtail plant response rating,[9]; [23],4
same,"Plant response rating, Giant foxtail",[9]; [25],9
same,"Plant response rating, Giant foxtail",[9]; [26],9
same,"Plant response rating, Barnyardgrass (0 to 10 scale, 0 is no effect, 10 is complete control)",[10]; [27],0
same,"Barnyardgrass plant response rating (0 to 10 scale, 0 is no effect, 10 is complete control)",[10]; [28],0
same,Barnyardgrass plant response rating,[10]; [29],0
same,Barnyardgrass plant response rating,[10]; [30],0
same,"Plant response rating, Redroot pigweed",[11]; [21],0
same,Redroot pigweed plant response rating,[11]; [22],0
same,Redroot pigweed plant response rating,[11]; [23],4
same,Redroot pigweed plant response rating,[11]; [24],7
same,"Plant response rating, Redroot pigweed",[11]; [25],10
same,"Plant response rating, Redroot pigweed",[11]; [26],10
same,"Plant response rating, Ducksalad (0 to 10 scale, 0 is no effect, 10 is complete control)",[12]; [27],0
same,"Ducksalad plant response rating (0 to 10 scale, 0 is no effect, 10 is complete control)",[12]; [28],0
same,Ducksalad plant response rating,[12]; [29],0
same,Ducksalad plant response rating,[12]; [30],0
same,"Plant response rating, Blackgrass",[13]; [21],0
same,Blackgrass plant response rating,[13]; [22],0
same,"Plant response rating, Blackgrass",[13]; [31],0
same,Blackgrass plant response rating,[13]; [23],1
same,Blackgrass plant response rating,[13]; [24],2
same,"Plant response rating, Blackgrass",[13]; [25],3
same,"Plant response rating, Blackgrass",[13]; [26],6
same,"Plant response rating, Velvetleaf",[14]; [21],0
same,Velvetleaf plant response rating,[14]; [22],0
same,Velvetleaf plant response rating,[14]; [23],0
same,Velvetleaf plant response rating,[14]; [24],0
same,"Plant response rating, Velvetleaf",[14]; [25],0
same,"Plant response rating, Velvetleaf",[14]; [26],4
same,"Plant response rating, S. Flatsedge (0 to 10 scale, 0 is no effect, 10 is complete control)",[15]; [27],0
same,"S. Flatsedge plant response rating (0 to 10 scale, 0 is no effect, 10 is complete control)",[15]; [28],0
same,S. Flatsedge plant response rating,[15]; [29],0
same,S. Flatsedge plant response rating,[15]; [30],0
same,"Plant response rating, Nutsedge",[16]; [21],0
same,Nutsedge plant response rating,[16]; [22],0
same,"Plant response rating, Nutsedge",[16]; [31],0
same,Nutsedge plant response rating,[16]; [23],0
same,Nutsedge plant response rating,[16]; [24],0
same,"Plant response rating, Nutsedge",[16]; [25],0
same,"Plant response rating, Nutsedge",[16]; [26],3
same,"Plant response rating, Rape",[17]; [21],0
same,Rape plant response rating,[17]; [22],0
same,"Plant response rating, Rape",[17]; [31],0
same,Rape plant response rating,[17]; [23],0
same,Rape plant response rating,[17]; [24],0
same,"Plant response rating, Rape",[17]; [25],0
same,"Plant response rating, Rape",[17]; [26],0
same,"Plant response rating, Bedstraw",[18]; [21],0
same,Bedstraw plant response rating,[18]; [23],0
same,Bedstraw plant response rating,[18]; [24],0
same,"Plant response rating, Bedstraw",[18]; [26],2
same,"Plant response rating, Sugarbeets",[19]; [21],0
same,Sugarbeets plant response rating,[19]; [22],2
same,Sugarbeets plant response rating,[19]; [23],0
same,Sugarbeets plant response rating,[19]; [24],0
same,"Plant response rating, Sugarbeets",[19]; [25],0
same,"Plant response rating, Sugarbeets",[19]; [26],3
same,"Plant response rating, Cocklebur",[20]; [21],0
same,Cocklebur plant response rating,[20]; [22],0
same,"Plant response rating, Cocklebur",[20]; [31],2
same,Cocklebur plant response rating,[20]; [23],0
same,Cocklebur plant response rating,[20]; [24],0
same,"Plant response rating, Cocklebur",[20]; [25],0
